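Test compounds were applied to cells in 96-well plates for 48 hours at 5 doses. GI50 is the concentration that inhibits growth by half.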 Calls of active or inactive are those of the source. Rule as the data show it: active = GI50 up to about 1.1 µM and inactive = higher.
What was measured:
Assay in all cases: DTP human tumour cell line panel, 48 h
[1] = test system: SK-MEL-2
[2] = test system: SK-MEL-28
[3] = test system: OVCAR-3
[4] = test system: U-251
[5] = test system: M14
[6] = test system: SNB-19
[7] = test system: SR
[8] = test system: ACHN
[9] = test system: SNB-75
[10] = test system: COLO 205
[11] = test system: MOLT-4
[12] = test system: SK-OV-3
[13] = test system: HOP-92
[14] = test system: Malme-3M
[15] = test system: RXF 393
[16] = test system: MDA-N
[17] = test system: UACC-257
[18] = test system: EKVX
[19] = test system: NCI/ADR-RES

For `NC(=S)N/N=C/c1nccc2ccccc12`, the GI50 [1] was 2.7 µM (inactive), the GI50 [2] was 2.37 µM (inactive) and the GI50 [3] was 0.307 µM (active). For the same compound, the GI50 [4] was 0.296 µM (active), the GI50 [5] was 0.482 µM (active) and the GI50 [6] was 0.948 µM (active). For the same compound, the GI50 [7] was 0.664 µM (active), the GI50 [8] was 0.0254 µM (active) and the GI50 [9] was 0.578 µM (active). For the same compound, the GI50 [10] was 0.957 µM (active), the GI50 [11] was 0.461 µM (active) and the GI50 [12] was 0.594 µM (active). For the same compound, the GI50 [13] was 2.74 µM (inactive), the GI50 [14] was 0.0337 µM (active) and the GI50 [15] was 0.257 µM (active).
In the case of `COC(C)(C)C1=CCC(C)CC1` (stereo not drawn), the GI50 [2] is reported as > 100 µM (inactive), the GI50 [3] is reported as > 100 µM (inactive) and the GI50 [4] is reported as > 100 µM (inactive). The GI50 [5] was > 100 µM (inactive), the GI50 [6] was > 100 µM (inactive) and the GI50 [7] was 24 µM (inactive). The GI50 [8] was > 100 µM (inactive), the GI50 [9] was 66.1 µM (inactive) and the GI50 [16] was > 100 µM (inactive). For the same compound, the GI50 [17] was > 100 µM (inactive), the GI50 [10] was > 100 µM (inactive) and the GI50 [18] was > 100 µM (inactive). The GI50 [11] was 30 µM (inactive), the GI50 [12] was > 100 µM (inactive) and the GI50 [13] was > 100 µM (inactive). The GI50 [14] was > 100 µM (inactive) and the GI50 [15] was > 100 µM (inactive).
For `O=C(CN1CCCC1=O)CS(=O)(=O)c1ccccc1`, the GI50 [1] was > 100 µM (inactive), the GI50 [2] was > 100 µM (inactive) and the GI50 [3] was > 100 µM (inactive). The GI50 [19] was > 100 µM (inactive), the GI50 [4] was > 100 µM (inactive) and the GI50 [5] was > 100 µM (inactive). For the same compound, the GI50 [6] was > 100 µM (inactive), the GI50 [7] was > 100 µM (inactive) and the GI50 [8] was > 100 µM (inactive). For the same compound, the GI50 [9] was > 100 µM (inactive), the GI50 [16] was > 100 µM (inactive) and the GI50 [17] was > 100 µM (inactive). For the same compound, the GI50 [10] was > 100 µM (inactive), the GI50 [18] was > 100 µM (inactive) and the GI50 [11] was > 100 µM (inactive). The GI50 [14] was > 100 µM (inactive) and the GI50 [15] was > 100 µM (inactive).
With `COc1cc(Nc2nc3ccccc3nc2-c2cccs2)cc(OC)c1OC` the GI50 [1] was 85.3 µM (inactive), the GI50 [2] was 52.1 µM (inactive) and the GI50 [3] was 43.8 µM (inactive). For the same compound, the GI50 [4] was > 10 µM (inactive), the GI50 [6] was 56.9 µM (inactive) and the GI50 [7] was 26.1 µM (inactive). For the same compound, the GI50 [8] was 16.4 µM (inactive), the GI50 [9] was 40.6 µM (inactive) and the GI50 [17] was 28.8 µM (inactive). For the same compound, the GI50 [10] was > 10 µM (inactive), the GI50 [18] was 89.5 µM (inactive) and the GI50 [11] was 12.9 µM (inactive). The GI50 [12] was 40.2 µM (inactive), the GI50 [13] was 13.9 µM (inactive) and the GI50 [14] was 67.9 µM (inactive). For the same compound, the GI50 [15] was 16.6 µM (inactive).
In the case of `O=C1CN(c2ccc(Cl)cc2)C(=O)CN1NCNN1CC(=O)N(c2ccc(Cl)cc2)CC1=O`, the GI50 [2] is reported as > 100 µM (inactive), the GI50 [3] is reported as > 100 µM (inactive) and the GI50 [4] is reported as > 100 µM (inactive). The GI50 [5] was > 100 µM (inactive), the GI50 [6] was > 100 µM (inactive) and the GI50 [7] was > 100 µM (inactive). For the same compound, the GI50 [8] was > 100 µM (inactive), the GI50 [9] was > 100 µM (inactive) and the GI50 [16] was > 100 µM (inactive). The GI50 [17] was > 100 µM (inactive), the GI50 [10] was > 100 µM (inactive) and the GI50 [18] was > 100 µM (inactive). The GI50 [11] was > 100 µM (inactive), the GI50 [12] was > 100 µM (inactive) and the GI50 [13] was > 100 µM (inactive). The GI50 [14] was > 100 µM (inactive) and the GI50 [15] was > 100 µM (inactive).
In the case of `COc1ccc(OC)c(CNc2ccc(C(=O)O)cc2)c1`, the GI50 [1] is reported as > 100 µM (inactive), the GI50 [2] is reported as > 100 µM (inactive) and the GI50 [3] is reported as > 100 µM (inactive). The GI50 [19] was > 100 µM (inactive), the GI50 [4] was > 100 µM (inactive) and the GI50 [5] was > 100 µM (inactive). For the same compound, the GI50 [6] was > 100 µM (inactive), the GI50 [7] was > 100 µM (inactive) and the GI50 [8] was > 100 µM (inactive). The GI50 [9] was > 100 µM (inactive), the GI50 [16] was > 100 µM (inactive) and the GI50 [17] was > 100 µM (inactive). The GI50 [10] was > 100 µM (inactive), the GI50 [18] was > 100 µM (inactive) and the GI50 [11] was > 100 µM (inactive). For the same compound, the GI50 [12] was > 100 µM (inactive), the GI50 [13] was > 100 µM (inactive) and the GI50 [14] was > 100 µM (inactive).
With `CCCCCCCCCCCCCC(=O)OCC(C[As](=O)(O)O)OC(=O)CCCCCCCCCCCCC` (stereo not drawn) the GI50 [1] was > 100 µM (inactive), the GI50 [2] was > 100 µM (inactive) and the GI50 [3] was > 100 µM (inactive). For the same compound, the GI50 [4] was 43.9 µM (inactive), the GI50 [5] was > 100 µM (inactive) and the GI50 [6] was > 100 µM (inactive). For the same compound, the GI50 [7] was > 100 µM (inactive), the GI50 [8] was > 100 µM (inactive) and the GI50 [9] was > 100 µM (inactive). For the same compound, the GI50 [17] was > 100 µM (inactive), the GI50 [18] was > 100 µM (inactive) and the GI50 [11] was > 100 µM (inactive). For the same compound, the GI50 [12] was > 100 µM (inactive), the GI50 [13] was 86.5 µM (inactive) and the GI50 [14] was > 100 µM (inactive). The GI50 [15] was 35.3 µM (inactive).
In the case of `N#CCCN(c1ccc(/C=N/c2ccc(C(=O)O)cc2)cc1)S(=O)(=O)c1ccccc1`, the GI50 [1] is reported as > 100 µM (inactive), the GI50 [2] is reported as > 100 µM (inactive) and the GI50 [3] is reported as > 100 µM (inactive). For the same compound, the GI50 [4] was > 100 µM (inactive), the GI50 [5] was > 100 µM (inactive) and the GI50 [6] was > 100 µM (inactive). For the same compound, the GI50 [7] was > 100 µM (inactive), the GI50 [8] was > 100 µM (inactive) and the GI50 [9] was > 100 µM (inactive). For the same compound, the GI50 [17] was > 100 µM (inactive), the GI50 [10] was > 100 µM (inactive) and the GI50 [18] was > 100 µM (inactive). The GI50 [11] was > 100 µM (inactive), the GI50 [12] was > 100 µM (inactive) and the GI50 [13] was > 100 µM (inactive). The GI50 [14] was > 100 µM (inactive) and the GI50 [15] was > 100 µM (inactive).

Source: ChEMBL document CHEMBL1201862, “PubChem BioAssay data set” (2004)
